# Reference: ChEMBL document CHEMBL2424589, “Novel hydroxyl tricyclics (e.g., GSK966587) as potent inhibitors of bacterial type IIA topoisomerases” (Bioorg Med Chem Lett, 2013)
# Columns and labels:
# [1] = species: Canis familiaris; assay: Blood clerance in Beagle dog relative to hepatic blood flow; type: ADME, organism-based, Canis lupus familiaris; conditions: in vivo
# [2] = Inhibition of DNA gyrase-dependent DNA replication in toluenized-Haemophilus influenzae cells assessed as ATP-dependent [33P]-TTP incorporation after 30 mins by scintillation proximity assay; conditions: 0.5 h
# [3] = system: Streptococcus pneumoniae; assay: Antibacterial activity against Streptococcus pneumoniae 1629 infected in nonneutropenic mouse assessed as reduction in bacterial burden in lungs at 100 mg/kg, po bid after 48 hrs; type: functional, Lung
# [4] = Volume of distribution at steady state in Sprague-Dawley rat at 3 mg/kg, iv; type: ADME, organism-based; parameters: dose 3 mg/kg, route intravenous; conditions: in vivo, read-out: Vdss
# [5] = Clearance in cynomolgus monkey at 3 mg/kg, iv; type: ADME, organism-based, Macaca fascicularis; parameters: dose 3 mg/kg, route intravenous; conditions: in vivo
# [6] = system: Cynomolgus monkey; assay: Blood clerance in cynomolgus monkey relative to hepatic blood flow; type: ADME, organism-based, Macaca fascicularis; conditions: in vivo
# [7] = Half life in Sprague-Dawley rat at 3 mg/kg, iv; type: ADME, organism-based; parameters: dose 3 mg/kg, route intravenous; conditions: in vivo
# [8] = biological target: T1, Voltage-gated inwardly rectifying potassium channel KCNH2 (Homo sapiens, UniProt Q12809); assay: Inhibition of human ERG transfected in HEK293 cells by patch clamp assay; type: cell-based
# [9] = AUC in Sprague-Dawley rat at 5 mg/kg, po; type: ADME, organism-based; parameters: dose 5 mg/kg, route oral; conditions: plasma
# [10] = AUC in Beagle dog at 5 mg/kg, po; type: ADME, organism-based, Canis lupus familiaris; parameters: dose 5 mg/kg, route oral; conditions: plasma
# [11] = Cmax in nonneutropenic mouse infected with Streptococcus pneumoniae 1629 at 50 mg/kg, po bid; type: ADME, organism-based; parameters: dose 50 mg/kg, route oral; conditions: in vivo
# [12] = species: Canis familiaris; assay: Renal clerance in Beagle dog relative to total clearance; type: ADME, organism-based, Canis lupus familiaris, Kidney; conditions: in vivo
# [13] = Plasma protein binding in human; type: ADME, cell-free; conditions: read-out: PPB (converted)
# [14] = Oral bioavailability in Sprague-Dawley rat at 5 mg/kg; type: ADME, organism-based; conditions: in vivo
# [15] = Half life in Beagle dog at 3 mg/kg, iv; type: ADME, organism-based, Canis lupus familiaris; parameters: dose 3 mg/kg, route intravenous; conditions: in vivo
# [16] = Volume of distribution at steady state in Beagle dog at 3 mg/kg, iv; type: ADME, organism-based, Canis lupus familiaris; parameters: dose 3 mg/kg, route intravenous; conditions: in vivo, read-out: Vdss
# [17] = Volume of distribution at steady state in cynomolgus monkey at 3 mg/kg, iv; type: ADME, organism-based, Macaca fascicularis; parameters: dose 3 mg/kg, route intravenous; conditions: in vivo, read-out: Vdss
# [18] = system: Haemophilus influenzae; assay: Antibacterial activity against Haemophilus influenzae H128 assessed as growth inhibition after 18 to 24 hrs by broth microdilution method; type: functional
# [19] = Plasma protein binding in dog; type: ADME, cell-free, Canis lupus familiaris; conditions: read-out: PPB (converted)
# [20] = biological target: T1, Voltage-gated inwardly rectifying potassium channel KCNH2; assay: Inhibition of human ERG by patch clamp assay
# [21] = species: Canis familiaris; assay: Toxicity in dog assessed as hepatic portal tract lesions measured for 14 days by GLP assay; type: organism-based, Canis lupus familiaris; conditions: in vivo, 336 h
# [22] = AUC in cynomolgus monkey at 5 mg/kg, po; type: ADME, organism-based, Macaca fascicularis; parameters: dose 5 mg/kg, route oral; conditions: plasma
# [23] = system: Cynomolgus monkey; assay: Renal clerance in cynomolgus monkey relative to total clearance; type: ADME, organism-based, Macaca fascicularis, Kidney; conditions: in vivo
# [24] = AUC in nonneutropenic mouse infected with Streptococcus pneumoniae 1629 at 50 mg/kg, po bid measured per day; type: ADME, organism-based; parameters: dose 50 mg/kg, route oral; conditions: plasma
# [25] = system: Staphylococcus aureus; assay: Antibacterial activity against Staphylococcus aureus WCUH-29 assessed as growth inhibition after 18 to 24 hrs by broth microdilution method; type: functional
# [26] = Plasma protein binding in monkey; type: ADME, cell-free, Macaca mulatta; conditions: rhesus monkey, read-out: PPB (converted)
# [27] = Clearance in Sprague-Dawley rat at 3 mg/kg, iv; type: ADME, organism-based; parameters: dose 3 mg/kg, route intravenous; conditions: in vivo
# [28] = Plasma protein binding in rat; type: ADME, cell-free; conditions: read-out: PPB (converted)
# [29] = species: Rattus norvegicus; assay: Blood clerance in Sprague-Dawley rat relative to hepatic blood flow; type: ADME, organism-based; conditions: in vivo
# [30] = Intrinsic clearance in monkey liver microsomes; type: ADME, Macaca mulatta, Microsome; conditions: rhesus monkey
# [31] = system: Liver; assay: Intrinsic clearance in dog liver microsomes; type: ADME, Canis lupus familiaris, Microsome
# [32] = system: Streptococcus pneumoniae; assay: Antibacterial activity against Streptococcus pneumoniae 1629 infected in nonneutropenic mouse assessed as reduction in bacterial burden in lungs at 50 mg/kg, po bid after 48 hrs relative to 1 hr nontreated control; type: functional, Lung
# [33] = Oral bioavailability in cynomolgus monkey at 5 mg/kg; type: ADME, organism-based, Macaca fascicularis; conditions: in vivo
# [34] = Oral bioavailability in Beagle dog at 5 mg/kg; type: ADME, organism-based, Canis lupus familiaris; conditions: in vivo
# [35] = Clearance in Beagle dog at 3 mg/kg, iv; type: ADME, organism-based, Canis lupus familiaris; parameters: dose 3 mg/kg, route intravenous; conditions: in vivo
# [36] = system: Liver microsomes; assay: Intrinsic clearance in human liver microsomes; type: ADME, Microsome
# [37] = Half life in cynomolgus monkey at 3 mg/kg, iv; type: ADME, organism-based, Macaca fascicularis; parameters: dose 3 mg/kg, route intravenous; conditions: in vivo
# [38] = system: Streptococcus pneumoniae; assay: Antibacterial activity against Streptococcus pneumoniae 1629 assessed as growth inhibition after 18 to 24 hrs by broth microdilution method; type: functional
# T1 sequence (Q12809 whole entry): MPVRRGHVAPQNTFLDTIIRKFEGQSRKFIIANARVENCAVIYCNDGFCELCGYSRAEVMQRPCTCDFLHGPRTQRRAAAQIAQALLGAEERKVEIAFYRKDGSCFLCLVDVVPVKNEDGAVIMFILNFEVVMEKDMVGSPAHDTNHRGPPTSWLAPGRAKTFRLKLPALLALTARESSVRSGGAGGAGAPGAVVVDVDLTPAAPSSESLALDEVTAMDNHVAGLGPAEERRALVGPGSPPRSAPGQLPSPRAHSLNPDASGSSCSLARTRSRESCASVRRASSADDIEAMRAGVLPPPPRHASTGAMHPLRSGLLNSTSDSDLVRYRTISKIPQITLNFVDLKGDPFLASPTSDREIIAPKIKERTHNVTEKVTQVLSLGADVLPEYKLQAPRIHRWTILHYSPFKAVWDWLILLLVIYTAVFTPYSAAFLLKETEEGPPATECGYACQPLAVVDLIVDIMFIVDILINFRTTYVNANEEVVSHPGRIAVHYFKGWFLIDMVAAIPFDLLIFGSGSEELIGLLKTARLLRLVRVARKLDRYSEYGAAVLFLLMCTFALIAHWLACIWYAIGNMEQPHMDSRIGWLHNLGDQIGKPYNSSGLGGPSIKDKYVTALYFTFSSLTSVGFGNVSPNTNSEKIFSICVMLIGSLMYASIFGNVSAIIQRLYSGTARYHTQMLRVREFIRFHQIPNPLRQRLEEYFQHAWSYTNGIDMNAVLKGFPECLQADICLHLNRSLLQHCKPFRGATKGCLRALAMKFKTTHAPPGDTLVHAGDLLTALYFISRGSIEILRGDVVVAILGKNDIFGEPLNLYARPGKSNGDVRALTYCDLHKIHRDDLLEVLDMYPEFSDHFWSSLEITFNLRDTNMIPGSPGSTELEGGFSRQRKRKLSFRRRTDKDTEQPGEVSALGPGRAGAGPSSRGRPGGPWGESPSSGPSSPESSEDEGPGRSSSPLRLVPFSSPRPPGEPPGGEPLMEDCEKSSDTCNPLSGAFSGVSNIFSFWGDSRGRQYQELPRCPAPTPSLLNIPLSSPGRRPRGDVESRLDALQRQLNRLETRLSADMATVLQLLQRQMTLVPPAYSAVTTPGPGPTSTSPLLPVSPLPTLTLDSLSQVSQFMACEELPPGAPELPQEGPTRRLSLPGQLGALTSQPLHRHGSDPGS
smiles,measurement,setting,value
O=c1ccc2ncc(F)c3c2n1C[C@@]3(O)CN1CCC(NCc2cc3c(cn2)OCCO3)CC1,CL,[1],50%
same,IC50,[2],0.035 µg/mL
same,log10cfu,[3],1.7
same,Vd,[4],8.6 L/kg
same,clearance,[5],25.1 mL/min/kg
same,CL,[6],50%
same,half-life,[7],3.1 h
same,IC50,[8],310 µM
same,AUC,[9],460 ng·h/mL
same,AUC,[10],2820 ng·h/mL
same,Cmax,[11],8000 ng/mL
same,CL,[12],27%
same,fraction unbound,[13],0.777
same,bioavailability,[14],34%
same,half-life,[15],7.1 h
same,Vd,[16],6.4 L/kg
same,Vd,[17],3.4 L/kg
same,MIC,[18],1 µg/mL
same,fraction unbound,[19],0.823
same,IC50,[20],239 µM
same,Activity,[21],Toxic
same,AUC,[22],1920 ng·h/mL
same,CL,[23],15%
same,AUC,[24],50000 ng·h/mL
same,MIC,[25],0.125 µg/mL
same,fraction unbound,[26],0.781
same,clearance,[27],62.2 mL/min/kg
same,fraction unbound,[28],0.577
same,CL,[29],100%
same,CLH,[30],1.6 mL/min/g
same,CLH,[31],< 0.5 mL/min/g
same,log10cfu,[32],2
same,bioavailability,[33],55%
same,bioavailability,[34],63%
same,clearance,[35],18.1 mL/min/kg
same,CLH,[36],< 0.5 mL/min/g
same,half-life,[37],2.3 h
same,MIC,[38],0.125 µg/mL
O=c1ccc2ncc(F)c3c2n1C[C@]3(O)CN1CCC(NCc2cc3c(cn2)OCCO3)CC1,IC50,[2],> 1.32 µg/mL
same,MIC,[18],> 16 µg/mL
same,Activity,[21],Non-toxic
same,MIC,[25],8 µg/mL
same,MIC,[38],4 µg/mL
O=c1ccc2ncc(F)c3c2n1C[C@@]3(F)CN1CCC(NCc2cc3c(cn2)OCCO3)CC1,IC50,[2],0.04 µg/mL
same,MIC,[18],0.5 µg/mL
same,Activity,[21],Non-toxic
same,MIC,[25],0.03 µg/mL
same,MIC,[38],0.06 µg/mL
O=c1ccc2ncc(F)c3c2n1C[C@H]3CN1CCC(NCc2cc3c(cn2)OCCO3)CC1,IC50,[2],0.035 µg/mL
same,IC50,[8],122 µM
same,MIC,[18],0.25 µg/mL
same,IC50,[20],58 µM
same,Activity,[21],Non-toxic
same,MIC,[25],0.03 µg/mL
same,MIC,[38],0.06 µg/mL
O=c1ccc2ccc(F)c3c2n1C[C@@]3(O)CN1CCC(NCc2cc3c(cn2)OCCO3)CC1,IC50,[2],0.071 µg/mL
same,MIC,[18],1 µg/mL
same,Activity,[21],Non-toxic
same,MIC,[25],0.06 µg/mL
same,MIC,[38],0.125 µg/mL
O=c1cnc2ccc(F)c3c2n1C[C@@]3(O)CN1CCC(NCc2cc3c(cn2)OCCO3)CC1,IC50,[2],0.058 µg/mL
same,IC50,[8],206 µM
same,MIC,[18],0.5 µg/mL
same,IC50,[20],101 µM
same,Activity,[21],Non-toxic
same,MIC,[25],0.125 µg/mL
same,MIC,[38],0.125 µg/mL
O=c1c(F)cc2ncc(F)c3c2n1C[C@@]3(O)CN1CCC(NCc2cc3c(cn2)OCCO3)CC1,IC50,[2],0.037 µg/mL
same,MIC,[18],0.5 µg/mL
same,IC50,[20],289 µM
same,Activity,[21],Non-toxic
same,MIC,[25],0.25 µg/mL
same,MIC,[38],0.25 µg/mL
O=c1ccc2ncc(F)c3c2n1C[C@@]3(O)CN1CCC[C@@H](CNCc2cc3c(cn2)OCCO3)C1,IC50,[2],1.21 µg/mL
same,MIC,[18],16 µg/mL
same,Activity,[21],Non-toxic
same,MIC,[25],4 µg/mL
same,MIC,[38],4 µg/mL
O=c1ccc2ncc(F)c3c2n1C[C@@]3(O)CN1CCO[C@@H](CNCc2cc3c(cn2)OCCO3)C1,IC50,[2],0.361 µg/mL
same,MIC,[18],4 µg/mL
same,Activity,[21],Non-toxic
same,MIC,[25],> 16 µg/mL
same,MIC,[38],4 µg/mL
